Measured values published in PMC5365645, “Preclinical Pharmacokinetics and Pharmacodynamic Target of SCY-078, a First-in-Class Orally Active Antifungal Glucan Synthesis Inhibitor, in Murine Models of Disseminated Candidiasis” (Antimicrobial Agents and Chemotherapy, 2017).
Where two headings read alike, the source gives them in different places.

What was measured:
[1] = In vitro metabolic stability in hepatic microsomes; format: in vitro ADME, mouse; settings: for remaining at 0.5 h, 1 µM: read-out: % remaining after 30 min; for half-life at 1 μM / microsomal CLint at 1 μM: pooled liver microsomes
Protocol: (§1) The metabolic stability of SCY-078 was assessed after incubation with mouse, rat, dog, and human liver microsomes (Table 2) ([10]). […] The half-lives in rodent, dog, and human liver microsomes were ≥125, ≥29, and ≥42 min, respectively.
(§2) The metabolic stability of SCY-078 was evaluated with male and female mouse, male rat, male and female dog, and mixed-gender human liver microsomes (XenoTech, Lenexa, KS). SCY-078 (1 μM) was incubated with pooled liver microsomes (0.5 mg protein/ml) for 0, 5, 10, 20, and 30 min at 37°C in the presence of NADPH. Aliquots were taken at each sampling time point and extracted with 5 volumes of ice-cold acetonitrile containing the internal standard (d9-SCY-078, 125 ng/ml). Supernatants from the incubation mixtures were analyzed for the parent compound by LC-MS/MS according to the conditions described below. The metabolic competency of microsomal preparations was established using the control compounds 7-ethoxycoumarin, propranolol, and verapamil. The in vitro intrinsic clearance (CLint), the CLint scaled to the in vivo intrinsic clearance (CL′int), and the half-life were determined for SCY-078 incubated with microsomes from each species.

[2] = In vitro metabolic stability in hepatic microsomes; format: in vitro ADME; settings: for remaining at 0.5 h, 1 µM: read-out: % remaining after 30 min
Protocol: as §1, §2

[3] = Biological distribution to kidney tissue after oral delivery; settings: for Time to which concentrations would remain measurable in kidney: after dose 13, predicted from elimination rate constant
Protocol: Female CD-1 mice (n = 5/sex/time point/group) weighing approximately 25 g were administered SCY-078 by oral gavage either once daily or as multiple twice-per-day (Q12h) treatments, with individual doses ranging between 3 and 100 mg/kg (6 to 150 mg/kg/day). Mice also received a single 1-mg/ml i.v. dose of SCY-078. Plasma specimens were collected prior to dosing and at 0.25, 0.5, 1, 2, 4, 6, 9, 12, 18, 24, 36, 48, and 60 h after the single i.v. dose and at the same time points from 1 h postdose onward following oral dose 13 on day 7 of treatment. On the first day of oral treatment, plasma specimens were collected immediately before each of the two doses and 1, 2, 4, 6, 9, and 12 h postdosing. […] Kidney tissues were collected at 2, 4, 12, 24, 36, 48, and 60 h after oral dose 13 on treatment day 7, blotted dry, and stored at approximately −80°C until analysis.
On the day of analysis, either treatment-naive (drug-free) kidney tissue or freshly thawed tissue samples from PK studies were weighed and homogenized in 3 volumes of phosphate-buffered saline. The density of kidney tissue used for the determination of volume was assumed to be 1.0 g/ml.
Whole-kidney tissue samples were homogenized in parallel by means of a Precellys 24 bead mill homogenizer (Bertin Technologies, Montigny le Bretonneux, France) using 2-ml Precellys tubes containing 1.4-mm-diameter ceramic beads (CK14) and a single 15-s cycle of 5,500 rpm. Parallel bead homogenization increased throughput and avoided potential cross-contamination of samples since each sample was wholly contained and homogenized within its own sealed vial with no direct contact between the homogenizing instrument or other samples.
Mouse plasma (50 μl) or kidney tissue homogenate (50 μl) was treated with 5 volumes of acetonitrile containing 50 ng of deuterium (d9)-labeled SCY-078 internal standard/ml to precipitate proteins. Treated samples were mixed on a 96-well plate shaker for ∼30 min and then centrifuged at approximately 4,000 × g and 15°C for 15 min. Supernatants were transferred to fresh 96-well plates for analysis by LC-MS/MS.

[4] = in vivo; parameters: species or system beagle dogs; settings: beagle, dog; for half-life: t1/2
Protocol: (§3) The pharmacokinetics and bioavailability of SCY-078 were evaluated in uninfected mouse, rat, and dog after p.o. and i.v. administration. The in vivo phases of the PK studies were performed at either […] (Waltham, MA) or MPI Research (Mattawan, MI) after an Institutional Animal Care and Use Committee (IACUC) review. […] and MPI Research are Association for Assessment and Accreditation of Laboratory Animal Care International (AAALAC)-approved facilities. […] The peak concentration (Cmax), the time to maximum concentration (Tmax), the half-life, and the AUC were determined from composite mean plasma concentration-time data for rodents and individual plasma concentration-time data for dogs. All doses and plasma concentrations of SCY-078 are presented as free base. Treatment naive male and female beagle dogs (n = 3/sex/group/time point) weighing 8 to 12 kg (males) or 6 to 10 kg (females) were given a single 5-mg/kg dose of SCY-078 as an i.v. injection over 5 min or an oral dose of 20 mg/kg as described above. Blood specimens were collected from the jugular vein at various time intervals to 72 h postdosing and processed as described above.

[5] = tested on: C. albicans CLY724; experiment: Single delayed-dose treatment model of disseminated candidiasis; format: in vivo, mice; settings: single dose 16 h after infection, tissue burden 96 h after treatment, regression analysis
[6] = in vivo; parameters: species or system mice, rats, and dogs
Protocol: as §3, with “base. […] Male and female Wistar Han rats (n = 3/sex/group/time point) weighing 0.329 to 0.398 kg (males) or 0.187 to 0.244 kg (females) received a single 5-mg/kg dose of SCY-078 as an i.v. injection in the lateral tail administered over 5 min or an oral dose of 20 mg/kg as described above. Blood specimens were collected from four animals/time point/group using a sparse sampling strategy via the sublingual vein at time intervals to 72 h postdosing and processed as described above.” for “base.”

[7] = tested on: C. albicans MY1055; experiment: Single delayed-dose treatment model of disseminated candidiasis; settings: single dose 16 h after infection, tissue burden 96 h after treatment, regression analysis
Protocol: Next, a single-dose treatment with SCY-078 was administered. The target endpoint for efficacy in this model was defined as a static effect on the tissue burden measured 96 h after treatment.
For the single delayed-dose treatment model, a single dose of SCY-078 was administered 16 h after infection. The target endpoint for efficacy in this model was a static effect on the tissue burden measured at 96 h posttreatment.

[8] = both sexes, human, pooled liver microsomes, human (mixed) liver microsomes
[9] = pooled liver microsomes, male rat liver microsomes
[10] = kidney, 12 mg/kg oral, dose 13 day 7
[11] = female (mouse), both (rat, dog), CD-1 (mouse), Wistar Han (rat), beagle (dog), dog, po

CC(C)[C@@H](C)[C@@]1(C)CC[C@]2(C)[C@H]3CC[C@@H]4[C@@]5(COC[C@@]4(C)[C@@H](OC[C@](C)(N)C(C)(C)C)[C@H](n4ncnc4-c4ccncc4)C5)C3=CC[C@@]2(C)[C@@H]1C(=O)O [SCY-078, (1S,4aR,6aS,7R,8R,10aR,10bR,12aR,14R,15R)-15-[[(2R)-2-amino-2,3,3-trimethylbutyl]oxy]-8-[(1R)-1,2-dimethylpropyl]-14-[5-(4-pyridinyl)-1H-1,2,4-triazol-1-yl]-1,6,6a,7,8,9,10,10a,10b,11,12,12a-dodecahydro-1,6a,8,10a-tetramethyl-4H-1,4a-propano-2H-phenanthro[1,2-c]pyran-7-carboxylic acid]
remaining at 0.5 h, 1 µM ([1]; female mouse liver microsomes): 88%
remaining at 0.5 h, 1 µM ([1]; male mouse liver microsomes): 95%
half-life at 1 μM ([1]; female mouse liver microsomes): > 2.25 h
microsomal CLint at 1 μM ([1]; female mouse liver microsomes): < 10 µL/min/mg
half-life at 1 μM ([1]; male mouse liver microsomes): > 2.25 h
microsomal CLint at 1 μM ([1]; male mouse liver microsomes): < 10 µL/min/mg
half-life at 1 μM [2, 8]: ≥ 0.7 h
microsomal CLint at 1 μM [2, 8]: 34 µL/min/mg
remaining at 0.5 h, 1 µM ([2]; both sexes, pooled liver microsomes, human (mixed) liver microsomes): 61%
CLint ([2]; human (mixed) liver microsomes): 33 µL/min/mg
remaining at 0.5 h, 1 µM ([2]; male rat liver microsomes): 84%
half-life at 1 μM [2, 9]: 2.08 h
microsomal CLint at 1 μM [2, 9]: 11 µL/min/mg
Time to which concentrations would remain measurable in kidney ([3]; 6.25 mg/kg): approximately 100 h
Time to which concentrations would remain measurable in kidney ([3]; 12 mg/kg): ~115 h
AUC0–24 ([3]; kidney, 6.25 mg/kg oral, dose 13 day 7): 195000 ng·h/mL
AUC0–24 [3, 10]: 553000 ng·h/mL
half-life [3, 10]: 8.6 h
AUC(0-inf) ([4]; both sexes, iv, 5 mg/kg): 11900 ± 2200 ng·h/mL
AUC(0-t) ([4]; both sexes, iv, 5 mg/kg): 10400 ± 1900 ng·h/mL
Vd ([4]; both sexes, iv, 5 mg/kg): 5.1 L/kg
clearance ([4]; both sexes, iv, 5 mg/kg): 7.5 mL/min/kg
half-life ([4]; both sexes, iv, 5 mg/kg): ~9.3 h
AUC(0-inf) ([4]; both sexes, po, 20 mg/kg): 16000 ng·h/mL
AUC(0-t) ([4]; both sexes, po, 20 mg/kg): 11500 ng·h/mL
Cmax ([4]; both sexes, po, 20 mg/kg): 810 ± 420 ng/mL
Tmax ([4]; both sexes, po, 20 mg/kg): 4 ± 2 h
bioavailability ([4]; both sexes, po, 20 mg/kg, Bioavailability): ~35%
half-life ([4]; both sexes, po, 20 mg/kg): ~15.2 h
Dose normalized AUC0–∞ to a 1-mg/kg dose ([4]; both, iv): ~2.4 µg·h/mL
t1/2 ([4]; both, iv, 5 mg/kg): 9.3 h
Dose achieving stasis endpoint [5]: 9.93 mg/kg
Cmax ([6]; CD-1 (mouse), Wistar Han (rat), beagle (dog), dog, po): ~1000 ng/mL
half-life ([6]; both sexes, CD-1, Wistar Han, mouse, rat, po): 7.8 to 9.1 h
half-life ([6]; female (mouse), both (rat), CD-1 (mouse), Wistar Han (rat), iv): 5.5 to 8.7 h
Vd ([6]; female (mouse), both (rat, dog), CD-1 (mouse), Wistar Han (rat), beagle (dog), dog, iv): 4.7 to 5.3 L/kg
Dose normalized AUC0–12 across species [6, 11]: 0.5-0.8 μg/ml·h/mg/kg dose
Tmax [6, 11]: 4 to 6 h
Dose achieving stasis endpoint [7]: 10.28 mg/kg
